According to patent US6524560B1, “Use of substituted vinyltetrahydronaphthalenes and vinyl-benzotetrahydropyrans as light protection agents” (BASF Aktiengesellschaft, priority 1999, dated 2003):

Columns and labels:
[1] = UV absorption (absorption maximum and specific absorbance E 1/1); type: physicochemical; details: for λmax: UV absorption maximum; for E^1/1: specific absorbance at λmax
[2] = Standardized method for determining photostability (sun test); type: physicochemical; details: 5% strength by weight alcoholic solution on glass plate, 40° C.; for Photostability 30 min: 30 min irradiation; for Photostability 2 h: 2 h irradiation
Description: Standardized Method for Determining Photostability (Sun Test)
A 5% strength by weight alcoholic solution of the light protection agent to be tested is applied, using an Eppendorf pipette (20 μl), to the milled area of a small glass plate. Owing to the presence of the alcohol, the solution distributes uniformly on the roughened surface of the glass. The amount applied corresponds to the amount of light protection agent required to achieve an average sun protection factor in suncreams. In the test, four small glass plates are irradiated in each case. […] The small glass plates are cooled slightly during irradiation using a water cooling system located at the base of the sun test apparatus. The temperature inside the sun test apparatus is 40° C. during irradiation. After the samples have been irradiated, they are washed with ethanol in a dark 50 ml graduated flask and measured using a photometer. The blank samples are likewise applied to small glass plates and evaporated at room temperature for 30 minutes. Like the other samples, they are washed off with ethanol and diluted to 100 ml and measured.

[3] = used alone or in combination with UV-B filters; cited from earlier work

With `CC(=C(C#N)C#N)c1ccc2c(c1)C(C)(C)CCC2` [Example 1] the λmax [1] was 346 nm, the “E^1/1” value [1] was 694 and the “Photostability 30 min” value [2] was 96%. For the same compound, the “Photostability 2 h” value [2] was 90%.
For `CCOC(=O)C(=Cc1ccc2c(c1)C(C)(C)CCO2)C(=O)OCC` [Example 2], the λmax [1] was 320 nm, the “E^1/1” value [1] was 616 and the “Photostability 30 min” value [2] was 100%. The “Photostability 2 h” value [2] was 95%.
With `CC(=O)C(=Cc1ccc2c(c1)C(C)(C)CCO2)C(C)=O` [Example 3] the λmax [1] was 330 nm, the “E^1/1” value [1] was 801 and the “Photostability 30 min” value [2] was 97%. The “Photostability 2 h” value [2] was 84%.
For `Cc1cc2c(cc1C=C(C#N)C#N)C(C)(C)CCC2(C)C` [Example 4], the λmax [1] was 336 nm, the “E^1/1” value [1] was 700 and the “Photostability 30 min” value [2] was 95%. For the same compound, the “Photostability 2 h” value [2] was 83%.
In the case of `CC(C)(C)C(=O)/C(C#N)=C/c1ccc2c(c1)C(C)(C)CCC2(C)C` [Example 5], the λmax [1] is reported as 330 nm, the “E^1/1” value [1] is reported as 601 and the “Photostability 30 min” value [2] is reported as 86%. For the same compound, the “Photostability 2 h” value [2] was 83%.
For `CCOC(=O)C(=Cc1ccc2c(c1)C(C)(C)CCC2(C)C)C(=O)OCC` [Example 6], the λmax [1] was 294 nm, the “E^1/1” value [1] was 411 and the “Photostability 30 min” value [2] was 100%. For the same compound, the “Photostability 2 h” value [2] was 99%.
In the case of `CCOC(=O)C(=Cc1cc2c(cc1C)C(C)(C)CCC2(C)C)C(=O)OCC` [Example 7], the λmax [1] is reported as 294 nm, the “E^1/1” value [1] is reported as 594 and the “Photostability 30 min” value [2] is reported as 99%. For the same compound, the “Photostability 2 h” value [2] was 95%.
In the case of `CCOC(=O)C(=Cc1cc2c(cc1OC)C(C)(C)CCC2(C)C)C(=O)OCC` [Example 8], the “Photostability 30 min” value [2] is reported as 100/100% and the “Photostability 2 h” value [2] is reported as 100/100%.
For `COc1ccc(C(=O)CC(=O)c2ccc(C(C)(C)C)cc2)cc1` [PARSOL 1789, 4-(1,1-dimethylethyl)-4′-methoxydibenzoylmethane], the photochemical stability [3] is listed as “does not have sufficient photochemical stability”.
